The conditions of data set [1]: intraperitoneal injection of a few μg; cited from earlier work.
The test system of data set [2] is MADB106 tumor cells. The experiment in a line: Lung metastasis after intravenous MADB106 tumor cell inoculation in F344 rats. To be noted: intratracheal.
Data set [3] concerns lungs of rats. The experiment in a line: Leukocyte counts in bronchoalveolar lavage (BAL) after intratracheal instillation in rats. The format is in vivo, rat. The protocol:
In the majority of experiments, the biologically active, chemically synthesized 2-R-MALP-2 stereoisomer, corresponding to the natural compound, was used for intracheal administration. […] Both compounds were synthesized and purified as described in Example 1, and kept as 1 mg/ml stock solutions in a 33 vol. % 2-propanol, 67 vol. % water mixture. Stock solutions were diluted with pyrogen-free 0.9 wt. % sodium chloride solutions (Braun, Melsungen, Germany) shortly before application. Solvent controls consisted of corresponding mixtures without MALP-2.
Intratracheal administration of the compounds was performed under short ether anesthesia. During this process, rats were suspended in a hanging position by a rubber band fixed to the rats' upper jaw teeth. After intubation of the trachea via the oral cavity, a total volume of 500 μl was administered. Before administration, the correct position of the tube was checked by blowing air into the lung.
The animals' lungs were lavaged 10 times with 5 ml of cold 0.9 wt. % NaCl solutions via a tracheal cannula. The lavage fluid was pooled, and an average of >90% of the volume was recovered. The bronchoalveolar (BAL) cells were processed for blood leukocytes as described herein.
The total cell numbers in the lung compartments (BAL, marginal pool, and interstitium) and in the blood were determined in a Neubauer counting chamber. Differential cell counts were assessed on cytospins. The slides were fixed in acetone for 10 min and washed with Tris-buffered saline containing 0.1 wt. % Tween 20. Cells were stained with a monoclonal antibody cocktail against lymphocytes (R73 for T cells, O×12 for B cells, and 3.2.3 for natural killer cells [all cells available from Serotec, Oxford, United Kingdom]). At least 400 cells were differentiated on each slide. In addition, neutrophils and macrophages were morphologically identified by May-Grünwald and/or Giemsa staining.
For flow cytometry, cells were transferred into microtiter plates (10^6 cells/well) and washed twice in PBS containing 1% BSA and 0.1% NaN3. The staining was performed with the appropriate primary antibodies described below. After the cells were washed twice, the secondary antibody was incubated for 30 min at 4° C. The cells were analyzed by using a FACScan flow cytometer (Becton Dickinson, Mountain View, Calif.), focusing on the lymphocyte cluster. CD8^+ T cells were identified as R73^+ O×8^+; CD4^+ T cells were identified as R73^+ O×8^−; memory CD4^+ T cells were identified as O×22^− W3/25^high; naive T cells were identified as O×22^+ W3/25^high; and monocytes were identified as O×22^− W3/25^low. Dendritic cells were identified as low-autofluorescence cells, non-T and non-B lymphocytes, and double positive for O×6 and O×62 (Lambrecht et al., 1999. Am. J. Respir. Cell. Mol. Biol. 20:1165-1174). All primary antibodies were monoclonal mouse anti-rat (Serotec). Unconjugated antibodies were detected by using phycoerythrin-conjugated secondary antibody (KPE; Dianova, Hamburg, Germany) and biotinylated primary antibodies with Red 670-streptavidin (Gibco, Gaithersburg, Md.). Isotype-matched antibodies served as a control.
To investigate whether the lipopeptide MALP-2 would be able to exert effects in the lungs, 2.5 μg of the natural stereoisomer 2R-MALP-2 was instilled into the lungs of anesthetized rats. […] Taken together, only the natural 2R stereoisomer of MALP-2 specifically affected the cell counts and distribution of subsets in the BAL.
With respect to FIG. 2, the data are means±the standard error of the mean (SEM; n=six per group).
With respect to FIG. 3, rats were sacrificed at the indicated time points after instillation of 2.5 μg of 2R-MAPL-2, and leukocytes in the bronchoalveolar lavage (BAL) were determined as described. The data are means±the SEM (n=5 per group).
With respect to FIG. 4, data are means±the SEM (n=8 per group). […]

Data set [4] has as its system lymphatic tissue in the bronchial mucosa. Kind of data set: Lymphatic tissue in the bronchial mucosa after repeated inhalation in rats. The format is in vivo, rat. To be noted: inhalation by mask, 30 μg doses on six occasions at one-week intervals.
Protocol: They were maintained under specific-pathogen-free conditions until administration of compounds in accordance with the invention.
With the aid of a mask, rats were made to inhale 30 μg doses of MALP-2 on six occasions at one-week intervals.
Setting [5] is: 3 μg instilled into the trachea.
The mark [6] stands for this setting: 2.5 μg intratracheal, three days, P<0.01, FIG. 2.
Setting [7] is: three days after application, FIG. 4.

Results on 2 substances are retold here after patent US20040127405A1, “Methods for treating lung infections and lung tumors and for treating and preventing lung metastases” (priority 2000, published 2004).

Where two headings read alike, the source gives them in different places. Ends that are not written are not given here. * marks the point of attachment. S‑(2,3-bisacyloxypropyl) = S-(2,3-bisacyloxypropyl) group on the cysteine sulfur (lipopeptide), acyl preferably palmitoyl; X1 = S‑(2,3-bispalmitoyloxy-(2R)-propyl)Cys, CCCCCCCCCCCCCCCC(=O)OC[C@H](CSC[C@H](N)C(=O)*)OC(=O)CCCCCCCCCCCCCCC

On to “MALP-2: macrophage-activating lipopeptide MALP-2 (an S-(2,3-bisacyloxypropyl)-cysteine peptide) isolated from Mycoplasma fermentans; stereochemistry not stated where tested (C(S‑(2,3-bisacyloxypropyl))GNNDESNISFKEK; not fully specified; also: acyl groups not given here, alternative: 2,3-diacylglyceryl-serinyl)”, for which the leukocyte infiltration result in data set [1] is reported as “brought about leukocyte infiltration”. For the same substance, the “adverse effect on the animals” value under setting [5] is given as “not detectable”. The “food consumption, bodyweight, activity and behavior” value reads like this: under setting [5], “not noteworthy”; (inhalation, 30 μg doses on six occasions at one-week intervals) “clinically not noteworthy”. The “effects on lung colonization of tumor cells” value in data set [2] (one day after tumor cell injection, FIG. 5B) was “no effects”; in data set [2] (three days after tumor cell injection, FIG. 5C) it was “no effects”. Further, the “reduction of lung metastasis compared with sham-injected animals” value in data set [2] (simultaneously with tumor cell inoculation, counted 3 wk after inoculation, P=0.0006, FIG. 5A) was 44%. Further, the “number of leukocytes in the respiratory tracts and the alveolar space (BAL)” value in data set [3] (3 μg instilled into the trachea, after a few hours, lasts for a few days, FIG. 1) was “increase in the number of leukocytes”. For the same substance, the “lymphatic tissue in the bronchial mucosa” value in data set [4] was “increase in the lymphatic tissue”.
Take “S-[2,3-bispalmitoyloxy-(2R)-propyl]cysteinyl-GNNDESNISFKEK (X1-GNNDESNISFKEK) [2R-MALP-2]”: in data set [3] (2.5 μg intratracheal), the “time of maximal lymphocyte accumulation in the BAL” value is 72 h. Besides, the “lymphocyte numbers in the BAL” value in data set [3] (2.5 μg intratracheal, 24 h (0 h: [0.04±0.01]×10^6), mean±SEM) was 0.6±0.1 ×10^6. The “lymphocyte numbers in the BAL” value in data set [3] (2.5 μg intratracheal, 48 h, mean±SEM) is recorded as 0.9±0.1 ×10^6. Also, in data set [3] (2.5 μg intratracheal, 72 h after instillation, mean±SEM), the “lymphocyte numbers in the BAL (maximal accumulation)” value is 1.2±0.1 ×10^6. For the same substance, in data set [3] (2.5 μg intratracheal, after 10 days), the “all investigated cell types in the BAL” value is reported as “returned to control levels”. In data set [3] (2.5 μg intratracheal, six hours after treatment, FIG. 3), the “increase of total cell number in the BAL” value is on record as “about 10 -fold”. In data set [3] (2.5 μg intratracheal, three days after application, vs vehicle control, FIG. 2), the “total cell number in the BAL” value is “clearly increased”. In data set [3] (setting [6]), the “alveolar macrophages (AM) in the BAL” value is listed as “significant increase”, the “lymphocytes in the BAL” value is listed as “significant increase” and the “neutrophils in the BAL” value was “significant increase”. For the same substance, in data set [3] (2.5 μg intratracheal, FIG. 3), the “time of maximal cell count in the BAL” value was 24 h. Moreover, in data set [3] (setting [7]), the “increase in B cells and monocytes in the BAL” value was “lower, but still significant”; the “increase in T lymphocytes, NK cells and dendritic cells in the BAL” value is reported as “highest relative increase”. Further, the “increase of leukocyte subpopulations in the BAL (flow cytometry)” value in data set [3] (three days after application, P<0.01 vs control vehicle, FIG. 4) is listed as “significant”.
